Data on five compounds can be found in paper PMC10460844, “Real‐Time Monitoring of Multitarget Antimicrobial Mechanisms of Peptoids Using Label‐Free Imaging with Optical Diffraction Tomography” (Advanced Science, 2023).

Square brackets hold non-standard residues; d marks the D form. Peptide text beside a SMILES is read from it. Gly(N(CH2)2(3-indolyl)) = O=C(O)CNCCc1c[nH]c2ccccc12; Nspe = C[C@H](NCC(=O)O)c1ccccc1; Nphe = O=C(O)CNCc1ccccc1; Nlys = NCCCCNCC(=O)O

Data set [1] can be described thus: Analytical reversed-phase HPLC elution (hydrophobicity). In kind it is physicochemical. The following applies: Table S1; analytical RP-HPLC, SunFire C18, water/ACN + 0.1% TFA, 5 to 100% B linear over 30 min, 1 mL/min, UV 220 nm; approximate comparison of hydrophobicity. On the procedure: 7. HPLC chromatogram, retention time (tR), and LC-MS data
HPLC analysis of peptoids was conducted using a Waters HPLC system equipped with a Waters 2489 UV/Visible Detector, 1525 Binary HPLC Pump, 2707 Autosampler, 5CH column oven, and a C18 column (SunFire C18, 4.6 × 250 mm, 5 μm; Waters Corp., Milford, MA, USA). The mobile phases were deionized water (A, with + 0.1% TFA) and acetonitrile (ACN; B, with + 0.1% TFA). Before sample injection, the column was conditioned with 5% B for 10 min. Then, the mobile phase was maintained at 5% B for 2 min, followed by increasing B to 100% using a linear gradient over 30 min. At this point, 100% B was maintained for 5 additional min. The flow rate of the mobile phase was 1 mL/min. The sample was detected by measuring absorbance at 220 nm. […]

Another data set concerns rat erythrocytes. Briefly: Hemolysis assay. In kind it is cell-based. To be noted: for HC10 / HC50: pH 7.4. Here is the method:
The hemolysis assay was performed using rat erythrocytes in phosphate‐buffered saline (PBS), as reported by Mendes et al.^[ [45] ^] Animal studies were approved by the Laboratory Animal Resource Center of Gwangju Institute of Science and Technology. Blood was collected from a 13‐week‐old male Sprague‐Dawley rat in tubes containing 158 USP units of sodium heparin to prevent coagulation and centrifuged at 1000 rpm for 10 min at 4 °C. Plasma was removed carefully and erythrocyte pellets were washed three times with PBS (35 mM phosphate, pH 7.4, 150 mM NaCl). Next, 150 µL of a 10% erythrocyte suspension was mixed with 50 µL of serially diluted peptoids (0–100 µM) in a 96‐well black polypropylene plates (Greiner, Kremsmünster, Austria). Untreated erythrocytes and cells lysed by the addition of 1% Triton X‐100 were used as negative and positive controls, respectively, with the 1% Triton X‐100‐treated wells being accepted to represent 100% hemolysis. The reaction mixture was incubated at 37 °C for 60 min, and the plates were centrifuged at 1000 rpm for 15 min. Aliquots (150 µL) of the supernatant were transferred to fresh 96‐well plates, and the absorbance of each well was measured at 540 nm using a microplate reader. Hemolysis induced by peptoids was calculated as the percentage value of Triton X‐100 lysed cells. The percentage of hemolysis by the extracts was calculated according to the following formula: % hemolysis = [(Abs 540 nm in the peptoid solution – Abs 540 nm in PBS) / (Abs 540 nm in 1% Triton X‐100 – Abs 540 nm in PBS)] × 100. HC10 and HC50 were defined as the peptoid concentrations that caused 10% and 50% hemolysis in rat erythrocytes, respectively. H max indicates the percentage of hemolysis observed at the maximum peptoid concentration, 100 µM throughout this study.

Regarding `C[C@@H](c1ccccc1)N(CC(=O)N(CCCCN)CC(=O)N(CC(=O)N(CC(=O)N(CCCCN)CC(=O)N(CC(=O)N(CC(=O)N(CCCCN)CC(=O)N(CC(=O)N(CC(N)=O)Cc1ccccc1)Cc1ccccc1)[C@@H](C)c1ccccc1)[C@@H](C)c1ccccc1)[C@@H](C)c1ccccc1)[C@@H](C)c1ccccc1)C(=O)CN(C(=O)CNCCCCN)[C@@H](C)c1ccccc1` [peptoid 44] (H-[Nlys][Nspe][Nspe][Nlys][Nspe][Nspe][Nlys][Nspe][Nspe][Nlys][Nphe][Nphe]-NH2), the HPLC elution in data set [1] is 53.1 % MeCN. Moreover, in the data set on rat erythrocytes, the “Hmax (100 µM)” value is recorded as 97.9±3.7%, the HC10 came out at 6.3 µM and the HC50 is listed as 28.6 µM.

Take `C[C@@H](c1ccccc1)N(CC(=O)N(CCCCN)CC(=O)N(CC(=O)N(CC(=O)N(CCCCN)CC(=O)N(CC(=O)N(CC(=O)N(CCCCN)CC(=O)N(CC(=O)N(CCc1c[nH]c2ccccc12)CC(N)=O)[C@@H](C)c1ccccc1)[C@@H](C)c1ccccc1)[C@@H](C)c1ccccc1)[C@@H](C)c1ccccc1)[C@@H](C)c1ccccc1)C(=O)CN(CCc1c[nH]c2ccccc12)C(=O)CNCCCCN` [peptoid 17] (H-[Nlys][Gly(N(CH2)2(3-indolyl))][Nspe][Nlys][Nspe][Nspe][Nlys][Nspe][Nspe][Nlys][Nspe][Gly(N(CH2)2(3-indolyl))]-NH2): the HPLC elution in data set [1] amounted to 56.0 % MeCN. In addition, in the data set with rat erythrocytes, the “Hmax (100 µM)” value was determined as 87.3±6.7%, the HC10 was 18.0 µM and the HC50 stood at 39.7 µM.

With `C[C@@H](c1ccccc1)N(CC(N)=O)C(=O)CN(C(=O)CN(CCCCN)C(=O)CN(C(=O)CN(C(=O)CN(CCCCN)C(=O)CN(C(=O)CN(C(=O)CN(CCCCN)C(=O)CN(C(=O)CN(C(=O)CN(CCCCN)C(=O)CNCCc1c[nH]c2ccccc12)[C@@H](C)c1ccccc1)[C@@H](C)c1ccccc1)[C@@H](C)c1ccccc1)[C@@H](C)c1ccccc1)[C@@H](C)c1ccccc1)[C@@H](C)c1ccccc1)[C@@H](C)c1ccccc1` [peptoid 3], the HPLC elution in data set [1] is reported as 55.8 % MeCN. For the same compound, in the data set on rat erythrocytes, the “Hmax (100 µM)” value was 100.5±9.9%, the HC10 stood at 6.3 µM and the HC50 was determined as 13.9 µM.

Turning to `C[C@@H](c1ccccc1)N(CC(=O)N(CCc1c[nH]c2ccccc12)CC(=O)N(CCCCN)CC(=O)N(CC(=O)N(CC(=O)N(CCCCN)CC(=O)N(CC(=O)N(CC(=O)N(CCCCN)CC(=O)N(CC(=O)N(CCc1c[nH]c2ccccc12)CC(N)=O)[C@@H](C)c1ccccc1)[C@@H](C)c1ccccc1)[C@@H](C)c1ccccc1)[C@@H](C)c1ccccc1)[C@@H](C)c1ccccc1)C(=O)CNCCCCN` [peptoid 16] (H-[Nlys][Nspe][Gly(N(CH2)2(3-indolyl))][Nlys][Nspe][Nspe][Nlys][Nspe][Nspe][Nlys][Nspe][Gly(N(CH2)2(3-indolyl))]-NH2), the HPLC elution in data set [1] turned out to be 54.7 % MeCN. Also, in the data set with rat erythrocytes, the “Hmax (100 µM)” value is 100.3±1.7%, the HC10 was determined as 13.8 µM and the HC50 was 25.0 µM.

As to `C[C@@H](c1ccccc1)N(CC(N)=O)C(=O)CN(C(=O)CN(CCCCN)C(=O)CN(C(=O)CN(C(=O)CN(CCCCN)C(=O)CN(CCc1c[nH]c2ccccc12)C(=O)CN(C(=O)CN(CCCCN)C(=O)CN(C(=O)CN(CCCCN)C(=O)CNCCCCN)[C@@H](C)c1ccccc1)[C@@H](C)c1ccccc1)[C@@H](C)c1ccccc1)[C@@H](C)c1ccccc1)[C@@H](C)c1ccccc1` [peptoid 27], in data set [1], the HPLC elution stood at 50.7 % MeCN. Moreover, in the data set on rat erythrocytes, the “Hmax (100 µM)” value amounted to 5.9±0.2%, the HC10 is on record as over 100 µM and the HC50 was over 100 µM.
